What was measured:
Mouse C2C12 myoblasts [1] = test: C2C12 myoblast differentiation, qPCR of Myog and Tnnt-1 mRNA; format: cell-based; settings: 24 h in DM, C2C12 cells, vs vehicle
Method: (§1) Mouse C2C12 myoblasts were propagated in a growth medium (GM) composed of Dulbecco's modified Eagle's medium supplemented with 10% fetal bovine serum (FBS), 50 U/ml penicillin plus 50 μg/ml streptomycin, and 1% L-glutamine (Invitrogen, Milan, Italy), in a humidified atmosphere of 95% air/5% CO2 at 37° C.
(§2) Exposure of proliferating C2C12 cells for 24 to 72 h to a lower (from 10% to 0.1%) FBS concentration, plus the addition of 5 μg/ml insulin and 5 μg/ml transferrin (differentiation medium, DM), induced their differentiation into myotubes.
(§3) Total RNA was isolated from […] by use of the TRI-Reagent (Life Technology, Milan, Italy), reacted with DNase-I (1 U/μl; Sigma-Aldrich) following the manufacturer's instructions, and then quantified by spectrophotometric analysis.
[…]. Final preparation of RNA was considered DNA- and protein-free if the ratio between readings at 260/280 nm was >1.7. The purified mRNA was reverse-transcribed by use of reverse transcriptase (enzyme-VILO) (Life Technology, Milan, Italy). Quantitative real-time PCR was carried out in CFX384 real time
(§4) PCR detection system (Bio-Rad, Segrate MI, Italy) with specific primers by the use of SYBR Green detection (Bio-Rad, Segrate MI, Italy). Samples were amplified simultaneously in quadruplicate in one-assay run with a non-template control blank for each primer pair to control for contamination or primer-dimers formation, and the ct (cycle threshold) value for each experimental group was determined.
(§5) The housekeeping genes (the ribosomal protein S16) has been used as an internal control to normalize the ct values, using the 2-dCt formula; differences in mRNA content between groups were as expressed as 2-ddct, as previously described (Iannotti et al. 2013)
In order to gain information about the potential effects of phytocannabinoids on myoblast differentiation, C2C12 cells were induced to differentiate for 24-48 h in DM in the presence or absence of various phytocannabinoids.
qPCR analysis was then utilized to evaluated the expression level of the canonical developmentally regulated skeletal markers Myog and Tnnt-1.

Mouse C2C12 myoblasts [2] = test: Western blot analysis of MyHC protein in differentiating C2C12 cells; format: cell-based; settings: 72 h exposure to DM+1 μM CBD, relative to control conditions
Method: as §1, §2
Cells were washed two times in cold PBS and lysed with lysis solution (150 mM NaCl, 1 mM EDTA, pH 7.4, 10 mM Tris-HCl, pH 8, 1% SDS, and protease inhibitors). Lysates (50-60 ug) were boiled 5 min in Laemmli SDS loading buffer and separated by 8% SDS-polyacrylamide gel electrophoresis. Filters were incubated overnight at 4° C. with a mouse anti-MyHC (dilution, 1:1000; Millipore).
An anti-tubulin antibody (dilution, 1:5000; Sigma-Aldrich) was used to check for equal protein loading. Reactive bands were detected by chemiluminescence (ECL-plus; GE Healthcare). Images were analysed on a ChemiDoc station with Quantity one software (Bio-Rad, Segrate, Italy).
The effect of CBD 1 μM on myotube formation was confirmed by western blot analysis.

Mouse C2C12 myoblasts [3] = test: Short-term (10 min) CBD exposure of differentiating C2C12 myoblasts, qPCR; format: cell-based; settings: DM+1 μM for 10 min
Method: as §1, §2, §3, §4, §5
The potential effect of short term CBD exposure at 1 μM on differentiating C2C12 cells was also tested.
The day after plating, C2C12 myoblasts were exposed to DM in presence or not of 1 μM CBD for 10 min.

[4] = test system: Primary human satellite cells (SC); test: Human satellite cell differentiation, qPCR of Myog, Tnnt-1 and MyHC mRNA; format: cell-based; settings: 5 days of SC exposure to DM, vs vehicle
Method: (§6) Primary human satellite cells (SC) were purchased from Innoprot Inc (Bizkaia-Spain) and propagated in a growth medium (GM) which contains essential and non-essential amino acids, vitamins, organic and inorganic compounds, hormones, growth factors, trace minerals and a low concentration of fetal bovine serum (5%) (Innoprot lnc/Bizkaia-Spain) in a humidified atmosphere of 95% air/5% CO2 at 37° C.
(§7) Exposure of proliferating satellite cells 4-5 days to a lower (from 10% to 0.1%) FBS concentration, plus the addition of 5 μg/ml insulin and 5 μg/ml transferrin (differentiation medium, DM), induced their differentiation into myotubes.
As described in Example 1
To further investigate the effects of the cannabinoids CBD, CBDV and THCV on human skeletal muscle precursor cell differentiation qPCR analysis was used.
In particular, skeletal muscle cell differentiation was quantified by measuring the transcript levels of myogenin (Myog), Troponin (Tnnt-1) and Myosin Heavy Chain (MyHC). All of which are widely considered muscle-specific markers, required for myotube formation.

[5] = test system: Primary human satellite cells (SC); test: Phase contrast microscopy of differentiating primary human satellite cells; format: cell-based; settings: for Morphology of differentiating SC with respect to vehicle (DMSO) control: after 4 and 5 days of exposure to DM
Method: as §6, §7
Differentiating primary human satellite cells were also examined in phase contrast mode by means of conventional light microscopy. […] In particular, after 5 days of incubation in the presence of phytocannabinoids, the cells appeared more fused and with mature myotubes being larger in size.

[6] = Body mass of mdx mice over 16 weeks; format: in vivo, mouse; settings: for Total body mass / Total body mass, difference to vehicle: at week 15, CBD 120 mg/kg/day, DFZ 1.2 mg/kg/day
Method: (§8) Mdx mice were bred and housed according to Home Office regulations. At 6 weeks of age groups of female mdx mice (control n=18, deflazcort n=18, CBD n=19) were acclimatised to 3.5% Kolliphor/water (v/v) in drinking water.
(§9) Control groups were maintained on 3.5% Kolliphor for the duration of the study. Deflazacort (DFZ) groups were maintained on 3.5% Kolliphor for 2 weeks and then maintained on 1.2 mg/kg/day DFZ in 3.5% Kolliphor for 16 weeks (n=8).
(§10) CBD groups were acclimatised to 3.5% Kolliphor for 7 days. On day 7, 3.5% Kolliphor was supplemented with CBD at 75 mg/kg/day for 3 days; CBD was then increased to 120 mg/kg/day for 16 weeks (n=8).
Mice and bottles were weighed twice weekly to monitor body mass and consumption. Mice are housed in groups, therefore average consumption is calculated.

Mdx mice [7] = test: Real time PCR of gastrocnemius muscle of mdx mice at week 4; format: in vivo, mouse
Method: as §8, §9, §10
Gastrocnemius muscle was recovered at week 4 and relative gene expressions were determined.
RNA was extracted from cells following treatment with CBD. Control RNA was extracted from the control group (RNeasy kit, Qiagen). 2 μg of RNA from each sample was reversed transcribed using oligo dT primers (rt nanoscript 2, Primer Design).
Stable endogenous control genes (Pak1lip1, Htatfs1) were identified using the mouse GeNorm Kit qbase+software (Primer Design).
Real time PCR was conducted using SYBR green (Life Technologies) on an AB Biosystems Thermocycler. All real time PCR experiments were conducted with the following reaction conditions. Initial 95° C. 10 mins, followed by 40 cycles of 95° C. for 15 secs, 60° C. for 1 min, followed by melt curve analysis.
Relative levels of gene expression were determined using the standard curve method and are expressed relative to the average of the endogenous controls.

Mdx mice [8] = test: CD8 positive cells in spleens of mdx mice at week 4; format: in vivo, mouse; settings: spleen
Method: as §8, §9, §10
Spleens were recovered at week 4 and CD8 positive cells were analysed.

| Structure (SMILES) | Myogenin (Myog) mRNA expression level (Mouse C2C12 myoblasts [1]; 1 μM) | Troponin (Tnnt-1) mRNA expression level (Mouse C2C12 myoblasts [1]; 1 μM) | Total body mass [6] | Total body mass, difference to vehicle [6] | Myogenin (Myog) mRNA expression level (Mouse C2C12 myoblasts [1]; 3 μM) | Troponin (Tnnt-1) mRNA expression level (Mouse C2C12 myoblasts [1]; 3 μM) | MyHC transcript level ([4]; 3 μM) | Myog transcript level ([4]; 3 μM) | Tnnt-1 transcript level ([4]; 3 μM) | Morphology of differentiating SC with respect to vehicle (DMSO) control ([5]; 3 μM) | also measured |
| --- | --- | --- | --- | --- | --- | --- | --- | --- | --- | --- | --- |
| C=C(C)[C@@H]1CCC(C)=C[C@H]1c1c(O)cc(CCCCC)cc1O [CBD, Cannabidiol] | significant increase | significant increase | 29.42 g | 5.6% | – | – | – | – | – | – | Myosin Heavy Chain (MyHC) protein expression (Mouse C2C12 myoblasts [2]): significantly increased; Myog transcript level (Mouse C2C12 myoblasts [3]; then DM without drug for 3 h): significantly higher; Tnnt-1 transcript level (Mouse C2C12 myoblasts [3]; then DM without drug for 3 h): significantly higher; Myog transcript level (Mouse C2C12 myoblasts [3]; then DM without drug for 24 h): significantly higher; Tnnt-1 transcript level (Mouse C2C12 myoblasts [3]; then DM without drug for 24 h): significantly higher; MyHC transcript level ([4]; 1 μM): significantly increased; Myog transcript level ([4]; 1 μM): significantly increased; Tnnt-1 transcript level ([4]; 1 μM): significantly increased; Morphology of differentiating SC with respect to vehicle (DMSO) control ([5]; 1 μM): clear morphological differences; Total body mass compared with vehicle group ([6]; up to week 4, CBD 120 mg/kg/day in drinking water): did not differ; Mitochondrially encoded NADH dehydrogenase 2 (MT-ND2) relative gene expression, upregulation (Mdx mice [7]; n=4): 253.2%; PGC1a relative gene expression, upregulation (Mdx mice [7]; n=9): 125.8%; Sirtuin-1 (Sirt1) relative gene expression, upregulation (Mdx mice [7]; n=9): 84.9%; Total percentage CD8 population, difference to vehicle (Mdx mice [8]; n=9): 19.7%; Total percentage CD8 population (Mdx mice [8]; n=9, vehicle 10.9%): 8.7% |
| C=C(C)[C@@H]1CCC(C)=C[C@H]1c1c(O)cc(CCCCC)c(C(=O)O)c1O [CBDA, Cannabidiolic acid] | significantly reduced | significantly reduced | – | – | significantly reduced | significantly reduced | – | – | – | – | – |
| C=C(C)[C@@H]1CCC(C)=C[C@H]1c1c(O)cc(CCC)cc1O [CBDV, Cannabidivarin] | significant increase | significant increase | – | – | significant increase | significant increase | significantly increased | significantly increased | significantly increased | clear morphological differences | – |
| CCCCCc1cc(O)c(C/C=C(\C)CCC=C(C)C)c(O)c1 [CBG, Cannabigerol] | – | – | – | – | significantly reduced | significantly reduced | – | – | – | – | – |
| CCCc1cc(O)c2c(c1)OC(C)(C)[C@@H]1CCC(C)=C[C@@H]21 [THCV, Tetrahydrocannabivarin] | did not produced significant effects | did not produced significant effects | – | – | did not produced significant effects | did not produced significant effects | significantly increased | significantly increased | significantly increased | clear morphological differences | Cell fusion and size of mature myotubes ([5]; after 5 days of incubation, CBD 1 μM, CBDV and THCV 3 μM): more appreciable |
| CC(=O)OCC(=O)[C@@]12N=C(C)O[C@@H]1C[C@H]1[C@@H]3CCC4=CC(=O)C=C[C@]4(C)[C@H]3[C@@H](O)C[C@@]12C [deflazacort, Deflazacort, reference compound] | – | – | 26.26 g | 15.8% | – | – | – | – | – | – | Total body mass, lighter than vehicle and CBD groups ([6]; up to week 4, deflazacort 1.2 mg/kg/day in drinking water): 8.9%; Effect on total percentage CD8 population (Mdx mice [8]): unaffected |
